Assay results: patent publication US20240166645A1, “PYRIDOPYRIMIDINONE DERIVATIVE, PREPARATION METHOD THEREFOR, AND USE THEREOF” (Wuhan Humanwell Innovative Drug Research and Development …, priority 2021, published 2024)

Key:
CYP3A4 = CYP3A4 (Homo sapiens (Human), UniProt P08684); test: Inhibition test on cytochrome P450 subtype CYP3A4; type: in vitro ADME; details: at 10 μM, compared with the control compound I
Description: The inhibitory potential of compounds on cytochrome P450 (CYP450) subtype CYP3A4 (two substrates of midazolam and testosterone) was detected. First, the compound to be tested was prepared into a 10 mM stock solution in DMSO solvent, and the CYP3A4 inhibitor ketoconazole was prepared as 10 mM, 2.5 mM and 2.5 mM stock solutions in DMSO solvent. The test compound and ketoconazole were diluted to 400-fold final concentration (compound: 10 μM, ketoconazole: 2.5 μM) with acetonitrile.
NADPH cofactor (10 mL of potassium phosphate buffer added with 66.7 mg NADPH) at 4-fold final concentration and substrates were prepared with potassium phosphate buffer (0.1 M, pH=7.4), with CYP3A4 substrate midazolam at a final concentration of […] and CYP3A4 substrate testosterone at a final concentration of 20 μM.
A human liver microsome solution at a concentration of 0.2 mg/mL was prepared with potassium phosphate buffer on ice. A solution of the compound to be tested and a control inhibitor (control compound) solution at 2-fold final concentration were prepared with the human liver microsome solution on ice. The test wells were added with […] of the test compound solution and the control inhibitor solution respectively, and then added with […] of the substrate for duplication. A 96-well assay plate and a NADPH solution were incubated at 37° C. for 5 min, and 15 μL of pre-heated 8 mM NADPH solution was added to the assay plate to initiate the reaction. A CYP3A4 assay plate was pre-incubated at 37° C. for 5 min. The plate was added with 120 μL of acetonitrile to terminate the reaction, and after quenching, the plate was shaken on a shaker (IKA, MTS 2/4) for 10 min (600 rpm/min), and then centrifuged for 15 min. After centrifugation, the supernatant was collected, and added with purified water in a ratio of 1:1 to perform LC-MS/MS detection. A ratio of a peak area of compound to a peak area of internal standard was obtained, and the peak area ratio of the compound was compared with the peak area ratio of the control inhibitor to calculate the inhibition rate.

KRAS G12C-SOS1 = KRAS G12C-SOS1 (Homo sapiens (Human), UniProt Q07889); test: Inhibition test of compounds on KRAS G12C::SOS1 binding; details: GST-KRAS G12C, His-SOS1
Description: The compound to be tested was prepared into a 10 mM stock solution with DMSO, and the compound was serially diluted using 1× test buffer. 0.1 μL of the compound solution with different concentrations was transferred to a 384-well plate. […] 5 μL of His-SOS1 was added to the 384-well plate, centrifuged at 1000 rpm for 1 min, and incubated at room temperature for 15 min.
After incubation, 10 μL of a mixed solution of anti-6his-Tb monoclonal antibody (Cisbio, Cat. No. 61HI2TLA) and anti-GST-XL665 monoclonal antibody (Cisbio, Cat. No. 61GSTXLA) was added to the test well, centrifuged at 1000 rpm for 1 min, and incubated at room temperature for 1 h.
After incubation, the fluorescence signal ratios at 665 nm and 615 nm were read on a multifunctional microplate reader (Perkin Elmer, Envision 2104), and the IC50 values were calculated using Graphpad 5 software.

[1] = tested on: ERK phosphorylation level in DLD-1 cells; test: Inhibition of ERK phosphorylation level in DLD-1 cells (intracellular western blot); type: cell-based; details: Homo sapiens
Description: Intracellular western blot quantitative analysis was used to detect the inhibitory level of compounds on ERK phosphorylation in DLD-1 cells.
DLD-1 cells (ATCC, CCL-221) were seeded in a T75 culture flask at 2.5×10^6 cells/flask and cultured in a RPMI 1640 medium containing 10% FBS for 2 days. On day 3, the cells were seeded on a 384-well plate, and cultured overnight at 37° C., 5% CO2. After overnight culture, the plate was added with serially diluted compounds (the final content of DMSO was 0.5%), the negative group was added with DMSO, and incubated in a 37° C., 5% CO2 incubator.
The cells were fixed, washed once with PBS, treated to disrupt membranes, and blocked at room temperature for 1 h. The blocking solution was removed. The plate was added with primary antibody (CST, Cat. No. #4370S), and incubated overnight at 4° C. The plate was washed 3 times with PBST (PBS solution added with 0.05% Tween-20) and soaked for 2 min each time. The plate was added with secondary antibody (LI-COR, Cat. No. 926-32211) and incubated at room temperature in the dark. The plate was washed 3 times with PBST and soaked for 2 min each time. The plate was centrifuged at 1000 rpm for 1 min, scanned on a two-color infrared laser imaging system (Odyssey® CLX) to read the signal.
Relative signal=800-channel signal values/700-channel signal values.
Relative expression level of ERK phosphorylation=(test compound−control compound I)/(DMSO group−control compound I)
(§1) IC50 values were calculated using Graphpad 5 software.

H358 cells = test: Inhibition of 3D cell proliferation (3D CellTiter-Glo); type: cell-based; details: Homo sapiens, NCI-H358, 168 h, read-out: IC50 (nM), inhibition of 3D proliferation of H358 cells, 7 days
Description: H358 cells were seeded in a T75 culture flask and cultured in a RPMI 1640 medium containing 10% FBS for 2 days for subsequent experiments in which the cells would be cultured or seeded on a 384-well plate.
On day 1, the cells were seeded on the 384-well plate, with 40 μL of medium added per well and serially diluted compounds or DMSO added per well, and an additional well without seeded cells but with medium was set up as a blank control. After culture at 37° C., 5% CO2 for 7 days, the plate was added with 3D CellTiter-Glo reagent (Promega, Cat. No. G9683) on day 8, shaken at 320 rpm for 20 min, and left at room temperature for 2 h. Luminescence signals were read on a multifunctional microplate reader. Cell viability inhibition rate was calculated as:
Cell viability inhibition rate=(DMSO group−test compound)/(DMSO group−blank control group)×100%
as §1

[2] = Pharmacokinetic test in mice; type: in vivo; details: mouse, plasma; male ICR mice, oral gavage, 10 mg/kg
Description: Male ICR mice (20 to 25 g) were used and fasted overnight. Three mice were taken and orally administered by gavage (10 mg/kg). Blood was collected before the administration, and at 15 min, 30 min, 1 h, 2 h, 4 h, 8 h and 24 h after the administration. 6,800 g of the blood samples were centrifuged at 2 to 8° C. for 6 min, and plasma was collected and stored at −80° C. The plasma at each time point was taken and added with an acetonitrile solution containing internal standard in 3 to 5 times the amount, vortexed and mixed for 1 min, and centrifuged at 13,000 rpm/min at 4° C. for 10 min. The supernatant was collected, added with water in 3 times the amount, and mixed. An appropriate amount of the mixture was taken for LC-MS/MS analysis. The main pharmacokinetic parameters were analyzed using WinNonlin 7.0 software with non-compartmental model.

[3] = tested on: Mia Paca-2 pancreatic cancer; test: Mia Paca-2 pancreatic cancer in vivo efficacy test; set-up: species or system mice; details: Mia Paca-2, 0.125 mg/kg BID
Description: After one week of adaptive feeding of mice, Mia Paca-2 cells in a log phase were resuspended in serum-free DMEM, and then mixed with Matrigel in a ratio of 1:1.1×10^7 Mia Paca-2 cells were inoculated subcutaneously at the right flank at 100 μL per mouse, and tumor growth was observed regularly. When the tumor grew to an average volume of 150 to 200 mm^3, the mice were randomly divided into a model group and an administration group (single drug, in combination with trametinib) based on the tumor size and body weight. The tumor size and body weight were measured and recorded before and during the administration. After the treatment, the tumor size in the model group was compared with that in the administration group to determine the efficacy.

Sequence of KRAS G12C-SOS1 (Q07889 whole entry, stated change not applied): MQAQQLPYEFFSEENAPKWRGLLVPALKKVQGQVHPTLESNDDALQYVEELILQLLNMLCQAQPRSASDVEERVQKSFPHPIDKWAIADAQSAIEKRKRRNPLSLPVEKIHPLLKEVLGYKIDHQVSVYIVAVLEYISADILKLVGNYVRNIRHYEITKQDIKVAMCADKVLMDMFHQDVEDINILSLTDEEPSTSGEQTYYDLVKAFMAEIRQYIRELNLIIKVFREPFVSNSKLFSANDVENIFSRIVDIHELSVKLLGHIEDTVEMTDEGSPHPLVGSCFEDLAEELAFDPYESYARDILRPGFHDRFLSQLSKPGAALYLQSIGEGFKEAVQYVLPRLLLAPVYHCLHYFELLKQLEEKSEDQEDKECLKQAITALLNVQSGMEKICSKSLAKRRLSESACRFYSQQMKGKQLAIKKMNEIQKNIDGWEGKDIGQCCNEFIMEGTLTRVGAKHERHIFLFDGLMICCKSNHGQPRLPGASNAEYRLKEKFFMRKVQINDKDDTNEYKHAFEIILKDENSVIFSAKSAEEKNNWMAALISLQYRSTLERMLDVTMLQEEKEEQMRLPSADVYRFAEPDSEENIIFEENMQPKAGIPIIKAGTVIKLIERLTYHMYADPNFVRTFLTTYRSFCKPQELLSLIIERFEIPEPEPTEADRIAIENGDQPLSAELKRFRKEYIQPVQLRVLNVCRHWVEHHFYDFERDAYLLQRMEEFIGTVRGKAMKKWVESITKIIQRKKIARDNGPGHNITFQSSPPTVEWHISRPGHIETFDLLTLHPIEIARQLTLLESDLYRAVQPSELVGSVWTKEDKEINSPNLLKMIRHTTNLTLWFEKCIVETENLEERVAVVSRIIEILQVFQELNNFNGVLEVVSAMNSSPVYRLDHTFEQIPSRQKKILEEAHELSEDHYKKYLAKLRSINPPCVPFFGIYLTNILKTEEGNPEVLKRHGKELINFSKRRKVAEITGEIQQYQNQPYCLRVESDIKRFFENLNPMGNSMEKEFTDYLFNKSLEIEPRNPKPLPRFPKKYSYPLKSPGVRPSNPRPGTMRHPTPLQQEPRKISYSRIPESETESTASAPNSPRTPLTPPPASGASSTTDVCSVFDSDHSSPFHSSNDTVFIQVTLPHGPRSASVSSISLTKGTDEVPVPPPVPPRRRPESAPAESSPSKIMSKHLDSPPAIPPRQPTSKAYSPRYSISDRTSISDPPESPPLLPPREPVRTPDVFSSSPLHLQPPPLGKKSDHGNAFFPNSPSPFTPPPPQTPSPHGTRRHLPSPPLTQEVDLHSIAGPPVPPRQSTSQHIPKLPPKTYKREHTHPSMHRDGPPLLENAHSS
Sequence of CYP3A4 (P08684 whole entry): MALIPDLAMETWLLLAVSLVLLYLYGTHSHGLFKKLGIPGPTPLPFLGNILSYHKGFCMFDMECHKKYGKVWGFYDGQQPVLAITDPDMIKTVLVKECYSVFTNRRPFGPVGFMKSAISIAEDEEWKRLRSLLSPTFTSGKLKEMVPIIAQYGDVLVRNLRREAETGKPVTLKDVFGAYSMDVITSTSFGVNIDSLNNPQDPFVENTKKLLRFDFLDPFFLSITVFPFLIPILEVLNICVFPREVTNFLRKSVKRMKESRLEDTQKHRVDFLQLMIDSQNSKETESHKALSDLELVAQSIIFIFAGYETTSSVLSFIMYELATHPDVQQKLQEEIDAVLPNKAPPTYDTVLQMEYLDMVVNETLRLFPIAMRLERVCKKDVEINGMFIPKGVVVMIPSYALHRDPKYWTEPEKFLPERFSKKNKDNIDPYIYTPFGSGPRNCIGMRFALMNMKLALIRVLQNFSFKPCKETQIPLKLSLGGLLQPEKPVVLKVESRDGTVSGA

Row | Structure (SMILES) | IC50 (KRAS G12C-SOS1) | IC50 [1] | IC50 (H358 cells) | further results
1 | Cc1nc(N[C@H](C)c2cccc(S(F)(F)(F)(F)F)c2)c2cn(C3(CF)CC3)c(=O)cc2n1 [Compound I-3, (R)-6-(1-(fluoromethyl)cyclopropyl)-2-methyl-4-((1-(3-(pentafluorosulfanyl)phenyl)ethyl)amino)pyrido[4,3-d]pyrimidin-7(6H)-one] |  |  |  | inhibitory effect on CYP3A4 enzymes (in words) (CYP3A4): more significant inhibitory effect
2 | Cc1nc(N[C@H](C)c2cccc(OC(F)F)c2F)c2cn(C3(C(F)F)CC3)c(=O)cc2n1 [Compound I-12, (R)-4-((1-(3-(difluoromethoxy)-2-fluorophenyl)ethyl)amino)-6-(1-(difluoromethyl)cyclopropyl)-2-methylpyrido[4,3-d]pyrimidin-7(6H)-one] | 22.2 nM | 196 nM |  | 
3 | COCC1(n2cc3c(N[C@H](C)c4cccc(S(F)(F)(F)(F)F)c4)nc(C)nc3cc2=O)CC1 [Compound I-13, (R)-6-(1-(methoxymethyl)cyclopropyl)-2-methyl-4-((1-(3-(pentafluorosulfanyl)phenyl)ethyl)amino)pyrido[4,3-d]pyrimidin-7(6H)-one] |  | 109 nM | 15.7 nM | 
4 | Cc1nc(N[C@H](C)c2cccc(S(F)(F)(F)(F)F)c2)c2cn([C@H]3C[C@](C)(O)C3)c(=O)cc2n1 [Compound I-15, 6-((1r,3R)-3-hydroxy-3-methylcyclobutyl)-2-methyl-4-(((R)-1-(3-(pentafluorosulfanyl)phenyl)ethyl)amino)pyrido[4,3-d]pyrimidin-7(6H)-one] | 14.4 nM |  |  | 
5 | Cc1nc(N[C@H](C)c2cccc(S(F)(F)(F)(F)F)c2)c2cn(C3CC(F)(F)C3)c(=O)cc2n1 [Compound I-16, (R)-6-(3,3-difluorocyclobutyl)-2-methyl-4-((1-(3-(pentafluorosulfanyl)phenyl)ethyl)amino)pyrido[4,3-d]pyrimidin-7(6H)-one] | 16.1 nM |  |  | 
6 | CC(=O)N1CCC(C)(n2cc3c(N[C@H](C)c4cccc(S(F)(F)(F)(F)F)c4)nc(C)nc3cc2=O)CC1 [Compound I-17, (R)-6-(1-acetyl-4-methylpiperidin-4-yl)-2-methyl-4-((1-(3-(pentafluorosulfanyl)phenyl)ethyl)amino)pyrido[4,3-d]pyrimidin-7(6H)-one] |  | 119 nM | 12.1 nM | 
7 | CC(=O)N1CCC(C)(n2cc3c(N[C@H](C)c4cccc(S(F)(F)(F)(F)F)c4)nc(C)nc3cc2=O)C1 (stereo partly drawn) [Compound I-18, 6-(1-acetyl-3-methylpyrrolidin-3-yl)-2-methyl-4-(((R)-1-(3-(pentafluorosulfanyl)phenyl)ethyl)amino)pyrido[4,3-d]pyrimidin-7(6H)-one] |  | 115 nM | 9.2 nM | 
8 | Cc1nc(N[C@H](C)c2cccc(S(F)(F)(F)(F)F)c2)c2cn([C@H]3C[C@H](F)C3)c(=O)cc2n1 [Compound I-19, 6-((1R,3R)-3-fluorocyclobutyl)-2-methyl-4-(((R)-1-(3-(pentafluorosulfanyl)phenyl)ethyl)amino)pyrido[4,3-d]pyrimidin-7(6H)-one] | 9.5 nM | 131 nM | 137 nM | 
9 | Cc1nc(N[C@H](C)c2cccc(S(F)(F)(F)(F)F)c2)c2cn(C3(C)CCOC3)c(=O)cc2n1 (stereo partly drawn) [Compound I-20, 2-methyl-6-(3-methyltetrahydrofuran-3-yl)-4-(((R)-1-(3-(pentafluorosulfanyl)phenyl)ethyl)amino)pyrido[4,3-d]pyrimidin-7(6H)-one] |  | 92 nM | 31 nM | 
10 | Cc1nc(N[C@H](C)c2cccc(S(F)(F)(F)(F)F)c2)c2cn(C3(C)CCOCC3)c(=O)cc2n1 [Compound I-21, (R)-2-methyl-6-(4-methyltetrahydro-2H-pyran-4-yl)-4-((1-(3-(pentafluorosulfanyl)phenyl)ethyl)amino)pyrido[4,3-d]pyrimidin-7(6H)-one] | 6.9 nM | 141 nM | 85.1 nM | 
11 | Cc1nc(N[C@H](C)c2cccc(S(F)(F)(F)(F)F)c2)c2cn(C3(C)CC3)c(=O)cc2n1 [Compound I-22, (R)-2-methyl-6-(1-methylcyclopropyl)-4-((1-(3-(pentafluorosulfanyl)phenyl)ethyl)amino)pyrido[4,3-d]pyrimidin-7(6H)-one] | 21.7 nM |  | 10.7 nM | 
12 | Cc1nc(N[C@H](C)c2cccc(C(F)F)c2F)c2cn(C3(C(F)F)CC3)c(=O)cc2n1 [Control compound II, reference compound] |  |  |  | AUC(0-t) [2]: 1000 ng·h/mL; Cmax [2]: 669 ng/mL; Tmax [2]: 30 min; half-life [2]: 57.6 min
13 | CC(=O)Nc1cccc(-n2c(=O)n(C3CC3)c(=O)c3c(Nc4ccc(I)cc4F)n(C)c(=O)c(C)c32)c1 [Trametinib, reference compound] |  |  |  | Tumor weight inhibition rate (relative to the vehicle group) [3]: 80%
